Assay results as given in PMC8466825, “Mass Spectrometric Quantification of the Antimicrobial Peptide Pep19-2.5 with Stable Isotope Labeling and Acidic Hydrolysis” (Pharmaceutics, 2021).

Assay: Stability of aromatic amino acids during acidic hydrolysis (HPLC)
Assay type: physicochemical
Conditions: hydrochloric acid, 24 h at 120 °C, 1 mg/mL before hydrolysis, HPLC with UV 214 nm
Method: For acidic hydrolysis 10 µL ^13C6(ring) phenylalanine (1 mg/mL stock) were added as internal standard to 200 µL water containing ^13C9,^15N1 phenylalanine (for calibration curve) or human serum (from voluntary donors) containing Pep19-2.5 with four ^13C9,^15N1 phenylalanine residues. After addition of 270 µL hydrochloric acid (10 M), the samples were hydrolyzed at 120 °C for 24 h. Subsequently, the solvent was evaporated in a vacuum evaporator (HETOVAC) at 40 °C for 4 h and the pellet was resuspended in water to achieve the applied concentration.
HPLC analysis was performed using an Agilent 1100 system with an UV-detection at 214 nm. As stationary phase a Chromolith® Performance RP-18e 100–3 mm column (Merck KGaA, Darmstadt, Germany) was used. A 5 min linear gradient from 100% water (+0.05% trifluoroacetic acid (TFA)) to 100% acetonitrile (+0.05% TFA) was applied.
For an accurate determination it is necessary to select an amino acid which is stable under the extreme conditions in the hydrolysis step (24 h, 120 °C). Moreover, the development of the method is facilitated if the amino acid is UV-active and more importantly in case of hydrophobic amino acids that are separated from the bulk of amino acids by RP-HPLC. Due to this, the three aromatic amino acids phenylalanine, tryptophan and tyrosine were hydrolyzed, and their stability analyzed by HPLC, as shown in Figure 4.

Row | stability during the acidic hydrolysis process | SMILES
1 | forms several degradation products | N[C@@H](Cc1c[nH]c2ccccc12)C(=O)O [Tryptophan, tryptophan]
2 | sufficiently stable | N[C@@H](Cc1ccccc1)C(=O)O [phenylalanine]
3 | degraded to poorly soluble products | N[C@@H](Cc1ccc(O)cc1)C(=O)O [tyrosine]
